According to patent US10385096B2, “Pro-Amb reverse turn restricted bioactive peptide analogues” (Council of Scientific & Industrial Research, priority 2016, dated 2019):

What was measured:
AT2 receptor [1] = test: neurite outgrowth assay in NG108-15 cells (functional activity at the AT2 receptor); assay type: cell-based; conditions: PD 123319 alone (10 μM), 3 days
Protocol: The functional activity of the analogues of the present invention was evaluated at the AT2 receptor, applying a neurite outgrowth assay in NG108-15 [108CC15] (ATCC® HB12317™) cells. […] The signaling pathways involve a sustained increase in Rap1/BRaf/p42/p44mapk activity and activation of the nitric oxide/guanylyl cyclase/cGMP pathway. NG108-15 cells were treated in absence or presence of Ang II and PD 123319, an AT2 receptor antagonist. The cells were plated at the initial density of 3.6×10^4 cells/petri dish (35 mm) and were cultured for 3 days in the absence (−) or presence (+) of 100 nM Ang II, 1 μM analogue 3, analogue 2 and analogue 1 alone or in combination with 10 μM antagonist PD 123,319 or 100 nM AngII. After 3 days of treatment, the cells were examined under a phase contrast microscope and micrographs were taken. Cells with at least one neurite longer than a cell body were counted as a positive neurite outgrowth. Antagonistic effect was established through co-incubation with Ang II resulting in reduced Ang II-induced neurite outgrowth, verifying blockage of the AT2 receptor. […] The number of cells with neurites was expressed as the percentage of the total number in the micrographs (at least 260 cells according to the experiment). […]
NG108-15 [108CC15] […] Cells with at least one neurite longer than a cell body were counted as positive for neurite outgrowth. […]

AT2 receptor [2] = conditions: 3-day treatment, undifferentiated NG108-15 cells; reported by Blankley et al; cited from earlier work

In the case of `Cc1cc(Cn2cnc3c2C[C@@H](C(=O)O)N(C(=O)C(c2ccccc2)c2ccccc2)C3)ccc1N(C)C` [PD 123319], the “cell morphology compared to untreated cells” value (AT2 receptor [1]) is reported as “did not alter the morphology”.

In the case of “Asp-Arg-Val-Tyr-Ile-His-Pro-Phe (DRVYIHPF) [Ang II, octapeptide, endogenous substrate for AT1 and AT2 receptors]”, the “neurite outgrowth in NG108-15 cells (earlier reported)” value (AT2 receptor [2]) is listed as “induces neurite outgrowth”.

In the case of CGP-42112A, the “neurite outgrowth in NG108-15 cells (earlier reported)” value (AT2 receptor [2]) is given as “induces neurite outgrowth”.
